Experimental data: patent publication US11149086B2, “KV1.3 binding immunoglobulins” (Ablynx N.V., priority 2014, dated 2021)
Bridge positions count the residues as written; N and C are the ends. Peptide text beside a SMILES is read from it.

Columns and labels:
[1] = system: CCR7−CD45RA− T cells; type: cell-based, human; settings: monovalent Nanobodies
From the text: The purified anti-Kv1.3 Nanobodies were characterized in a T Cell-activation assay. Human T Cells were first collected from Buffy Coat blood (from healthy volunteers, Bloodbank Gent) using RosetteSep (StemCell Technologies, #15061) followed by an enrichment on Ficoll-Paque™ PLUS (GE Healthcare #17-1440-03). CCR7−CD45RA− T cells were isolated through negative selection using biotinylated antibodies against CD45RA (BD Bioscience #624008) and CCR7 (BD Bioscence #624009) in addition to the Dynabeads Biotin Binder (Invitrogen #110.47). […]
Isolated CCR7^−CD45RA^− T Cells were then stimulated on anti-CD3 (eBioscience 16-0037-85; 540 ng/ml) coated 96-well plates at a concentration of 200 000 cells/well in absence or presence of dilution series of anti-Kv1.3 antibodies and ShK positive control (Smartox, #08SHK001). After 72 h, IFN-gamma production was measured with anti-human IFNγ antibody capture in ELISA (BD Bioscence #551221) combined with biotinylated anti-human IFNγ (BD Bioscience, #554550) and streptavidin-HRP (Dakocytomation #P0397) as detection (FIG. 11A-11B).
In addition, also CD25 expression was measured in flow cytometry, using an anti-CD25 antibody (BD Pharmingen, cat 557138) (FIG. 11C-11D). […]

[2] = target: T1, human Kv1.3 (Homo sapiens, UniProt P22001); experiment: FACS competition with FAM-labeled ShK on HEK293H human Kv1.3 cells; type: binding; settings: 70 nM ShK-FAM
T1 construct: cell lines stably expressing the full length human Kv1.3 channel
Protocol: To evaluate the competition between the toxin ShK and the Nanobodies for binding to Kv1.3, a FACS competition experiment was performed using HEK293H cells overexpressing human Kv1.3 and the parental HEK293H cells as background cell line. As detection reagent, FAM-labeled ShK was used (6-FAM-AEEAc-Stichodactyla helianthus Neurotoxin (ShK) (Bachem, H-6088, 1046522, PRT00000366/01/01)). To setup the assay, first a titration series of the labeled Shk-FAM was performed on the HEK293H Kv1.3 cells in order to determine the EC50 value for binding.
In brief, a dilution series of ShK or Nanobody were added together with the labeled toxin to 200 000 cells in a 96-well plate. After 90 minutes incubation at 4° C., cells were washed three times before read out was performed on a FACS Canto (Becton Dickinson). First a gate was set on the intact cells as determined from the scatter profile. Next, dead cells were gated out by their fluorescence profile from the TOPRO stain (5 nM, Molecular probes, T3605). […] The percentage of inhibition for Nanobodies blocking the interaction of ShK to human Kv1.3 is depicted in Table B-11.

[3] = system: human PBMCs; experiment: IFNγ production by human PBMCs after anti-CD3 with or without anti-CD28 stimulation; type: cell-based
Protocol: The anti-Kv1.3 inhibitory Nanobodies were evaluated for their effect on cytokine secretion by plate-bound anti-CD3/CD28 stimulated PBMCs. ShK was included as reference compound (FIG. 30). This co-stimulation of T-cells with anti-CD3 and anti-CD28 reflects strong immune stimulation as encountered during an acute infection. Single stimulation with anti-CD3 imitates rather the moderate immune stimulation resembling the situation during e.g. an autoimmune disease.
Briefly, PBMCs were first collected from Buffy Coat blood (from healthy volunteers, Bloodbank Gent) using RosetteSep (StemCell Technologies, #15061) followed by an enrichment on Ficoll-Paque™ PLUS (GE Healthcare #17-1440-03). The purity of the population was afterwards checked with anti-CD3 (eBioscience #12-0037-73); anti-CD8 (BD Bioscience #345775); anti-CD4 (BD Bioscience #345771); anti-CD45RO (BD Bioscience #555493); anti-CD45RA (BD Bioscience #550855) and anti-CD19 (BD Bioscience #555413) fluorescently labeled antibodies in a flow cytometric assay. […] After 72 h, IFN-gamma production was measured with anti-human IFNγ antibody capture in ELISA (BD Bioscence #551221) combined with biotinylated anti-human IFNγ (BD Bioscience, #554550) and streptavidin-HRP (Dakocytomation #P0397) as detection.

[4] = system: DNFB-induced delayed type hypersensitivity in Wistar rats; experiment: DNFB-induced delayed-type hypersensitivity (DTH) rat model, ear swelling; type: in vivo
From the text: A delayed-type hypersensitivity (DTH) reaction is an expression of T cell-mediated immunity in response to cutaneous sensitization and challenge with reactive haptens like 2, 4-dinitrofluorobenzene (DNFB), largely mediated by skin-homing effector memory T cells (Azam P et al., J Invest Dermatol 127(6):1419-29, 2007; Matheu M P et al., Immunity 29(4):602-14, 2008). The voltage-gated potassium channel Kv1.3 is expressed in T cells, and is important in maintaining T cell activation (predominantly effector memory T cells).
For the purpose of in vivo proof-of-concept, the efficacy of anti-Kv1.3 Nanobodies on DNFB-induced delayed type hypersensitivity in Wistar rats was evaluated. The DTH response in the rats was elicited as follows (see FIG. 37): on day 0 (start of the in-life) and day 1, 100 μl of 1% (wt/vol) DNFB prepared in 4:1 acetone/olive oil was applied to the shaved dorsum for sensitization. On day 5, animals were challenged on both sides of the right ear pinnae of the animals with 50 μl of 0.5% (wt/vol) DNFB prepared in 4:1 acetone: olive oil. […] As positive control, animals were treated with dexamethasone (topical, 0.75 mg at 1 hour and 6 hours post-challenge). On day 5 before DNFB challenge, the baseline right ear pinna thickness was measured, and the net ear swelling response was determined 24 hours after challenge with a spring-loaded micrometer.
The DTH response in the rats was elicited as follows (see FIG. 37): on day 0 (start of the in-life) and day 1, 100 μl of 1% (wt/vol) DNFB prepared in 4:1 acetone/olive oil was applied to the shaved dorsum for sensitization. On day 5, animals were challenged on both sides of the right ear pinnae of the animals with 50 μL of 0.5% (wt/vol) DNFB prepared in 4:1 acetone: olive oil. Animals (n=10 rats/group) received two subcutaneous (s.c.) injections of either vehicle, the benchmark compound ShK or the anti-Kv1.3 Nanobody at 12 hours and/or 1 hour preceding the challenge. As positive control, animals were treated with dexamethasone (topical, 0.75 mg at 1 hour and 6 hours post-challenge). On day 5 before DNFB challenge, the baseline right ear pinna thickness was measured, and the net ear swelling response was determined 24 hours after challenge with a spring-loaded micrometer.

T1 sequence (P22001 whole entry): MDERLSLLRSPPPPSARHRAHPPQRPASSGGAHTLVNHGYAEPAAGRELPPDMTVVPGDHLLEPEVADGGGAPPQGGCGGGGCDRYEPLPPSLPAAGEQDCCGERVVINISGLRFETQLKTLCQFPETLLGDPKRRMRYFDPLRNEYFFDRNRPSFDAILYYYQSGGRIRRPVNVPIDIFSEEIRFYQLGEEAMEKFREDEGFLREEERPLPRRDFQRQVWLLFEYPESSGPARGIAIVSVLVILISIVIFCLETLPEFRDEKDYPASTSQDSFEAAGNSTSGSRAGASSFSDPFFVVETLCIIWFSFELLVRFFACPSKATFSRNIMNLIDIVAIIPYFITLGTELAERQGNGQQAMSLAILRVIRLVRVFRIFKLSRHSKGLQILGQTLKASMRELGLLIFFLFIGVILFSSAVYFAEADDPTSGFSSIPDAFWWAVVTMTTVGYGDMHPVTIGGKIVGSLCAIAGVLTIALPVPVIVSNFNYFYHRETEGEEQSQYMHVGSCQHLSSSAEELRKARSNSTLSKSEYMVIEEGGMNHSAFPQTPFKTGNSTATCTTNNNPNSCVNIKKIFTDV

SMILES: CC[C@H](C)[C@H](NC(=O)[C@@H](N)[C@@H](C)O)C(=O)N[C@H](C(=O)N[C@@H](CC(N)=O)C(=O)N[C@H](C(=O)N[C@@H](CCCCN)C(=O)N[C@H]1CSSC[C@@H]2NC(=O)[C@H](CCCCN)NC(=O)[C@H](C)NC(=O)CNC(=O)[C@H](C)NC(=O)[C@H](CO)NC(=O)[C@H](CCC(N)=O)NC(=O)CNC(=O)[C@H](Cc3ccccc3)NC(=O)[C@H](CCC(N)=O)NC(=O)[C@H](C)NC(=O)[C@H](CCCCN)NC(=O)[C@@H]3CSSC[C@@H](C(=O)N[C@@H](Cc4ccc(O)cc4)C(=O)N4CCC[C@H]4C(=O)N[C@@H](Cc4c[nH]cn4)C(=O)O)NC(=O)[C@H](CCCCN)NC(=O)[C@H](CSSC[C@H](NC(=O)[C@H](CCC(N)=O)NC(=O)[C@H](CCCCN)NC(=O)[C@@H]4CCCN4C(=O)[C@H](CO)NC(=O)[C@H]([C@@H](C)O)NC1=O)C(=O)N[C@@H](CC(C)C)C(=O)N1CCC[C@H]1C(=O)N1CCC[C@H]1C(=O)N3)NC(=O)[C@H](CCCCN)NC(=O)CNC(=O)[C@H](CC(N)=O)NC(=O)[C@H](CCSC)NC2=O)C(C)C)[C@@H](C)CC [MgTX, margatoxin, reference compound] (H-TIINVKCTSPKQCLPPCKAQFGQSAGAKCMNGKCKCYPH-OH; disulfide 7-29, 13-34, 17-36; N-terminus and C-terminus assumed)
- IC50 (in M) CD25 read out ([1]; plate bound anti-CD3): no fit
- IC50 ([1]; plate bound anti-CD3, 72 h, read-out: IC50 (in M) IFNγ read out): 0.094 nM

SMILES: CC[C@H](C)[C@@H]1NC(=O)[C@@H](NC(=O)[C@H](CO)NC(=O)[C@@H](N)CCCNC(=N)N)CSSC[C@@H](C(=O)O)NC(=O)[C@H]([C@@H](C)O)NC(=O)CNC(=O)[C@@H]2CSSC[C@@H]3NC(=O)[C@H](CCC(N)=O)NC(=O)[C@H](Cc4ccccc4)NC(=O)[C@H](C)NC(=O)[C@H]([C@@H](C)O)NC(=O)[C@H](CSSC[C@H](NC(=O)[C@H](Cc4ccccc4)NC(=O)[C@H](CO)NC(=O)[C@H](CC(C)C)NC(=O)[C@H](CCCNC(=N)N)NC(=O)[C@H](Cc4ccc(O)cc4)NC(=O)[C@H](CCCCN)NC(=O)[C@H](CCSC)NC(=O)[C@H](CO)NC(=O)[C@H](Cc4c[nH]cn4)NC(=O)[C@H](CCCCN)NC3=O)C(=O)N[C@@H](CCCNC(=N)N)C(=O)N[C@@H](CCCCN)C(=O)N[C@@H]([C@@H](C)O)C(=O)N2)NC(=O)[C@H](CCCNC(=N)N)NC(=O)[C@H](CO)NC(=O)[C@H](CCCCN)NC(=O)[C@@H]2CCCN2C(=O)[C@H]([C@@H](C)CC)NC(=O)[C@H]([C@@H](C)O)NC(=O)[C@H](CC(=O)O)NC1=O [ShK]
- blocking of FAM labeled ShK binding to Kv1.3, in words [2]: completely blocked
- IFNγ production, PBMCs co-stimulated with anti-CD3 and anti-CD28 ([3]; anti-CD3 and anti-CD28, 72 h): do not inhibit
- IFNγ production, PBMCs stimulated with anti-CD3 only ([3]; single anti-CD3 stimulation, 72 h): Inhibition
- mean increase in ear thickness ([4]; Example 12, two s.c. injections of 10 μg/kg, 12 h and 1 h pre-challenge): 0.213±0.019 mm
- mean increase in ear thickness ([4]; Example 13, two s.c. injections of 100 μg/kg): 0.136±0.024 mm

SMILES: C[C@@H]1C[C@H]2[C@@H]3CCC4=CC(=O)C=C[C@]4(C)[C@@]3(F)[C@@H](O)C[C@]2(C)[C@@]1(O)C(=O)CO [dexamethasone]
- mean increase in ear thickness ([4]; Example 12, topical 0.75 mg at 1 h and 6 h post-challenge, 24 h after challenge): 0.027±0.017 mm
- mean increase in ear thickness ([4]; Example 13, topical 0.75 mg at 1 h and 6 h post-challenge): 0.018±0.016 mm
